Columns and labels:
CDK6-Cyclin D3 [1] = test: FRET-based LANCE Ultra in vitro enzymatic kinase assay, CDK6; assay type: biochemical
Protocol: (§1) IC50 values for CDK inhibitors were determined using the fluorescence resonance energy transfer (FRET)-based LANCE Ultra KinaSelect Ser/Thr kit (Perkin Elmer). Kinase activity and inhibition were measured according to the manufacturer’s instructions and as previously described. […] FRET signals were recorded in a time-resolved manner in a Perkin Elmer EnVision reader. Purified cyclin-kinase pairs were obtained from the following suppliers: Carna Biosciences (CDK1-Cyclin B1, CDK6-Cyclin D3, CDK7-Cyclin H-MAT1), ProQinase (CDK2-Cyclin A) and Invitrogen (CDK9-Cyclin T1).
(§2) Data were analyzed with GraphPad Prism 7 software. Differences were assessed by unpaired or paired Student t tests if not indicated otherwise. Two-sided probabilities of less than 0.05 were considered significant. Nonlinear regression sigmoidal dose-response curve fit was used to determine the IC50 values and to generate graphs.

CDK6-Cyclin D3 [2] = target: T1, CDK6-Cyclin D3 (Homo sapiens, UniProt Q00534); test: as above; assay type: biochemical
T1 construct: purchased Carna Biosciences
Protocol: as §1, §2

[3] = tested on: blood and splenic leukocytes of wild-type mice; test: Wild-type littermate control mice, oral LDC526, blood and spleen analysis; assay type: in vivo
Excerpt: Another widely used preclinical CLL model are TCL1 transgenic mice. The TCL1 transgenics represent a constitutive CLL model not involving the adoptive transfer of cells. This model mirrors the natural course of human IgVH-unmutated CLL including its disease progression. In addition, this model has also been widely used by others to test novel therapeutic molecules. […] Consecutive blood sampling allowed us to carry out a longitudinal study in individual TCL1 and control mice. For this, we chose a cohort of TCL1 and littermate control mice, which were 9-12 months old (Figure 5A). We chose TCL1 transgenics with high peripheral CLL cell (CD19+CD5+) counts (14.6±7.4/nl, mean±SEM). Given the presumably high leukemic burden in these aged TCL1 mice and the reduced general condition of some NSG mice receiving 75 mg/kg for 5 days we decided to dose TCL1 mice with 50 mg/kg daily for two consecutive days (Figure 5A). As the experiment was longitudinally designed and there was no effect expected of administering carrier to wild-type control mice we omitted this control group and established three experimental groups (Figure 5A). In order to minimize stress by collecting blood specimens we sampled blood three times, 8 days apart (days -5, +3 and +11; Figure 5A). Compared to blood smears prepared before commencing LDC526 treatment a marked decrease of peripheral blood leukocytes and CLL cells was observed two days post the last LDC526 administration to TCL1 transgenic mice (Figure 5B). In contrast to the carrier control treated TCL1 mice, white blood cell counts (WBC) dropped in LDC526-treated wild-type and TCL1 mice (Figure 5C). In comparison to wild-type control mice, where WBC dropped to 34% of baseline values, the WBC decrease in TCL1 mice was more dramatic dropping to 8% of baseline values (Figure 5D).
On day +11 (Figure 5A) the experiment was terminated as planned and spleens of the experimental mice were harvested. To be able to assess the impact of LDC526 on wild-type spleens we included n=3 of non-treated age-matched wild-type littermate mice as an additional experimental control group in the final spleen analysis. A caveat of this final spleen analysis posed the fact that in contrast to the longitudinal blood analysis, baseline spleen data of individual aged TCL1 mice were not available. As longitudinal analysis was not possible, we now compared spleen parameters between cohorts. Importantly, it is unknown to which extent the amount of circulating peripheral blood TCL1 CLL cells determined at baseline correlates with splenomegaly. […]
All mice were bred and housed at the University Hospital Essen animal care facility. […] Peripheral blood counts were determined with the VetABC analyzer (scil, Viernheim, Germany). […]

T1 sequence (Q00534 whole entry): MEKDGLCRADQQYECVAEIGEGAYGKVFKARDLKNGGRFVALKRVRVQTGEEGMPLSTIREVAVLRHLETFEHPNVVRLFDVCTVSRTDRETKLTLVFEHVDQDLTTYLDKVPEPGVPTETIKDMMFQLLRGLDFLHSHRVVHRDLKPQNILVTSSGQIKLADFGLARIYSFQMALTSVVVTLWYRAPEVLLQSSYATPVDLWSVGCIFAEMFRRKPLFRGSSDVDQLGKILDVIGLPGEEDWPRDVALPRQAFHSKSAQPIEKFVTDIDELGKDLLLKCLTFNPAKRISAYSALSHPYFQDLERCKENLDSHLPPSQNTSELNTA
T1 sequence (P30281 whole entry partner): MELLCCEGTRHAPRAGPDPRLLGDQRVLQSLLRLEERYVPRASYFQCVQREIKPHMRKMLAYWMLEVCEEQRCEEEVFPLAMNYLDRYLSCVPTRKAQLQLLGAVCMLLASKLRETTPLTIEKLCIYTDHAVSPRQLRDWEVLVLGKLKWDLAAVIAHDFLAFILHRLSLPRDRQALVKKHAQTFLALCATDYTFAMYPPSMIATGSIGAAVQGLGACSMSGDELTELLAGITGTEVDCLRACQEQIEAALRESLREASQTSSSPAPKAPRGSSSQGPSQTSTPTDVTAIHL

COc1cc(F)ccc1-c1ncnc(Nc2cccc(CS(N)(=O)=O)c2)n1 [LDC526, (3-((4-(4-fluoro-2-methoxyphenyl)-1,3,5-triazin-2-yl)amino)phenyl)methane-sulfonamide]
selectivity versus CDK9 compared to CDK6 (CDK6-Cyclin D3 [1]): > 900 fold
IC50 (CDK6-Cyclin D3 [2]): > 10 µM
WBC, percent of baseline values ([3]; 50 mg/kg daily for two days, day +3): 34%
concentration of wild-type blood T cells ([3]; 50 mg/kg for two days): halved
splenic B cell numbers, percent of untreated mice ([3]; day +11): 31%
B cells, percent of baseline levels ([3]; peripheral blood): 3.7%

From PMC5995184, “Potent anti-leukemic activity of a specific cyclin-dependent kinase 9 inhibitor in mouse models of chronic lymphocytic leukemia” (Oncotarget, 2018)
